Data: PubChem BioAssay (NCI)
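Values below derive from 48-hour exposures of cells grown in 96-well plates, with endpoints linearly interpolated between the two concentrations bracketing the appropriate inhibition level. Here, GI50 denotes the concentration required for 50% inhibition of growth. TGI denotes the concentration required for complete inhibition of growth.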

Key:
Experiment in all cases: DTP human tumour cell line panel, 48 h
NCI/ADR-RES ovarian = system: NCI/ADR-RES ovarian
OVCAR-4 ovarian = system: OVCAR-4 ovarian
HOP-92 NSCLC = system: HOP-92 NSCLC
DU-145 prostate = system: DU-145 prostate
UACC-257 melanoma = system: UACC-257 melanoma
MOLT-4 leukemia = system: MOLT-4 leukemia
A498 renal = system: A498 renal
COLO 205 colon = system: COLO 205 colon
SK-MEL-2 melanoma = system: SK-MEL-2 melanoma
MALME-3M melanoma = system: MALME-3M melanoma
SF-268 CNS = system: SF-268 CNS
MCF7 breast = system: MCF7 breast
NCI-H460 lung = system: NCI-H460 lung
CCRF-CEM leukemia = system: CCRF-CEM leukemia
NCI-H226 lung = system: NCI-H226 lung
SW-620 colon = system: SW-620 colon
786-0 renal = system: 786-0 renal
HOP-62 NSCLC = system: HOP-62 NSCLC
OVCAR-5 ovarian = system: OVCAR-5 ovarian
PC-3 prostate = system: PC-3 prostate
SN12C renal = system: SN12C renal
SNB-75 CNS = system: SNB-75 CNS
A549 NSCLC = system: A549 NSCLC
NCI-H522 lung = system: NCI-H522 lung
BT-549 breast = system: BT-549 breast
RPMI-8226 leukemia = system: RPMI-8226 leukemia
UO-31 renal = system: UO-31 renal
LOX IMVI melanoma = system: LOX IMVI melanoma
KM12 colon = system: KM12 colon

## O=C(COc1ccc(NC(=O)Nc2ccccc2)cc1)N=Nc1c(O)[nH]c2ccc([N+](=O)[O-])cc12
NCI/ADR-RES ovarian
  GI50: > 100 µM
  TGI: > 100 µM
OVCAR-4 ovarian
  GI50: 1840 nM
  TGI: 3.96 µM
HOP-92 NSCLC
  GI50: 1760 nM
  TGI: 3.39 µM
DU-145 prostate
  GI50: 3.88 µM
  TGI: > 100 µM
UACC-257 melanoma
  GI50: 2010 nM
  TGI: 4.91 µM
MOLT-4 leukemia
  GI50: 2370 nM
  TGI: 5.08 µM
A498 renal
  GI50: 11.4 µM
  TGI: 32.5 µM
COLO 205 colon
  GI50: 1940 nM
  TGI: 3.55 µM
SK-MEL-2 melanoma
  GI50: 1760 nM
  TGI: 3.46 µM
MALME-3M melanoma
  GI50: 1630 nM
  TGI: 3.07 µM
SF-268 CNS
  GI50: 1910 nM
  TGI: 4.08 µM
MCF7 breast
  GI50: 1940 nM
  TGI: 4.02 µM
NCI-H460 lung
  GI50: 1890 nM
  TGI: 4.58 µM
CCRF-CEM leukemia
  GI50: 2450 nM
  TGI: 6.17 µM
NCI-H226 lung
  GI50: 2310 nM
  TGI: 5.94 µM
SW-620 colon
  GI50: 1690 nM
  TGI: 3.83 µM
786-0 renal
  GI50: 5.69 µM
  TGI: 23.8 µM
HOP-62 NSCLC
  GI50: 2420 nM
  TGI: 7.08 µM
OVCAR-5 ovarian
  GI50: 4.11 µM
  TGI: > 100 µM
PC-3 prostate
  GI50: 2050 nM
  TGI: 4.76 µM
SN12C renal
  GI50: 1650 nM
  TGI: 3.3 µM
SNB-75 CNS
  GI50: 1460 nM
  TGI: 3.39 µM
A549 NSCLC
  GI50: > 100 µM
  TGI: > 100 µM
NCI-H522 lung
  GI50: 1610 nM
  TGI: 3.15 µM
BT-549 breast
  GI50: 1890 nM
  TGI: 5.37 µM
RPMI-8226 leukemia
  GI50: 5.39 µM
  TGI: > 100 µM
UO-31 renal
  GI50: > 100 µM
  TGI: > 100 µM
LOX IMVI melanoma
  GI50: 1700 nM
  TGI: 3.15 µM
KM12 colon
  GI50: 1950 nM
  TGI: 3.96 µM
